Experimental data taken from patent US5284853A, “Angiotensin II receptor blocking 2,3,6 substituted quinazolinones” (American Cyanamid Company, priority 1993, dated 1994).
pIC50: −log10 of the molar value. Values joined by “and” are separate entries in the source; they are usually repeats but may differ in a detail not shown here. Equal values may be shown once.

Key:
[1] = test system: Angiotensin II (AII) vasopressor response; assay: AII Challenge: antagonism of the angiotensin II vasopressor response in conscious SHR; assay type: in vivo, Spontaneously hypertensive rats (Male okamoto-Aoki SHR); conditions: 5 mg/kg I.V.; for Average Change / Inhibition: n = 2; for Change / Control Before AII / Response After AII: per rat
Excerpt: […] Conscious Male okamoto-Aoki SHR, 16-20 weeks old, weighing approximately 330 g are purchased from Charles River Labs (Wilmington, MA). Conscious rats are restrained in a supine position with elastic tape. The area at the base of the tail is locally anesthetized by subcutaneous infiltration with 2% procaine. […] The cannula is secured, heparinized (1,000 I.U./ml), sealed and the wound is closed. The animals are placed in plastic restraining cages in an upright position. The cannula is attached to a Statham P23Db pressure transducer, and pulsatile blood pressure is recorded to 10-15 minutes with a Gould Brush recorder. (Chan et al., (Drug Development Res., 18:75-94, 1989). […] Co., St. […] […] […] […] […] A compound is considered active if at 30 mg/kg i.v. it antagonized at least 50% of the response.

Angiotensin II Receptor = target: T1, Angiotensin II Receptor (Bos taurus, UniProt P25104); assay: Receptor binding assay: competition of [^125 I](Sar^1,Ile^8)AngII binding to beef adrenal cortex microsomal membranes; conditions: 60 min, room temperature, pH 7.4
T1 construct: The brownish tissue forming the adrenal cortex is scraped off and finely minced with scissors before homogenization; tissue local slaughter house (Maxwell-Cohen); host or cells: beef adrenal cortex, microsomal membranes (100,000×g pellet)
T1 sequence (P25104 1-359): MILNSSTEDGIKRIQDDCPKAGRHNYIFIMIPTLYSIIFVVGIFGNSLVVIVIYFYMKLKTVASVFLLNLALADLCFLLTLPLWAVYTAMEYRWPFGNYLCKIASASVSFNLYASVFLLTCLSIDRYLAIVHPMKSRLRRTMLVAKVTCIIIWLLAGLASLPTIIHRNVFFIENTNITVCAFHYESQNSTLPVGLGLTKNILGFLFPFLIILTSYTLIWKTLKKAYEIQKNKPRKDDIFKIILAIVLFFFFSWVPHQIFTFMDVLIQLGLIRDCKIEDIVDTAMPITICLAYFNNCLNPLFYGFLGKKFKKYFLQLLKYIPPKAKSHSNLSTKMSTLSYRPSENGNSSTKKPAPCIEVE
Excerpt: Beef adrenals are obtained from a local slaughter house (Maxwell-Cohen). [^125 […]. 2200 Ci/mmole, is purchased from Dupont (KEN@, Boston, Mass.). All unlabeled AngII analogs, Dimethylsulfoxide (DMSO), nucleotides, bovine serum albumin (BBA) are purchased from Sigma Chemical Co., St. Louis, MO U.S.A. Approximately sixteen (16) to twenty (20) beef adrenal glands are processed as follows: fresh adrenal glands received on crushed ice are cleaned of fatty tissues and the tough membranes encapsulating the glands are removed and discarded. The brownish tissue forming the adrenal cortex is scraped off and finely minced with scissors before homogenization care is taken to avoid contamination with medullary tissue during dissection. […] Unless otherwise indicated, all subsequent operations are done at […]. […] The homogenate is centrifuged first at low speed (3,000×g) for 10 min. […] This P2 pellet is discarded and the liquid phase is carefully decanted off in clean centrifuge tubes and recentrifuged at high speed (100,000×g) for 60 min. The translucent final pellet is harvested and combined in a small volume (20-50.0 ml) of […] Tris.HCl buffer, pH 7.2. A 100 ul aliquot is withdrawn and the protein content of the preparation is determined by the Lowry's method (Lowry, O. H., Rosebrough, N. P., Parr, A. L. and Randall, R. J., Protein measurement with Folin phenol reagent. J. Biol. Chem., […], 265-275, 1951). The pelleted membrane is reconstituted in 50.0 mM Tris.HCl buffer containing 0.1 mM of phenylmethylsulfonyl fluoride (PMSF) to give approximately a protein concentration of 2.5 mg per ml of tissue suspension. […] In competition studies, experimental compounds are diluted in dimethylsulfoxide (DMSO) and added in 20 ul to wells before the introduction of tissue membranes. This concentration of DMSO is found to have no negative effects on the binding of [^125 I] ([…] to the membranes. Assays are performed in triplicate. The wells are left undisturbed for 60 min. at room temperature. Following incubation, all wells are harvested at once with a Brandel® Harvester especially designed for a 96 well plate (Brandel® Biomedical Research & Development Labs. Inc., Gaithersburg, MD, U.S.A.). The filter discs are washed with 10×1.0 ml of cold 0.9% NaCl to remove unbound ligand. Presoaking the filter sheet in 0.1% polyethyleneimine in normal saline (PEI/Saline) greatly reduces the radioactivity retained by the filter blanks. This method is routinely used. The filters are removed from the filter grid and counted in a Parkard® Cobra Gamma Counter for 1 min. (Packard Instrument Co., Downers Grove, Ill, U.S.A.). The binding data are analyzed by the non-linear interactive "LUNDON-11" program (LUNDON SOFTWARE Inc., Cleveland, OH U.S.A.).

[2] = AII 0.05 mcg/kg IV, 30 min post dose
[3] = AII 0.05 mcg/kg IV, 60 min post dose
[4] = AII 0.05 mcg/kg IV, 90 min post dose
[5] = AII 0.05 mcg/kg IV, 180 min post dose
[6] = AII 0.1 mcg/kg IV, 30 min post dose
[7] = AII 0.1 mcg/kg IV, 60 min post dose
[8] = AII 0.1 mcg/kg IV, 90 min post dose
[9] = AII 0.1 mcg/kg IV, 120 min post dose
[10] = AII 0.1 mcg/kg IV, 180 min post dose
[11] = AII 0.5 mcg/kg IV, 120 min post dose

Compound: CCCCc1nc2ccc(C3CC(c4ccc(C)s4)=NO3)cc2c(=O)n1Cc1ccc(-c2ccccc2-c2nnn[nH]2)cc1 (stereo not drawn) [Example 21]
- Average Change [1, 2]: 13.5 mmhg
- Inhibition [1, 2]: 72%
- Change [1, 2]: 17 mmhg and 10 mmhg
- Control Before AII [1, 2]: 188 mmhg and 180 mmhg
- Response After AII [1, 2]: 205 mmhg and 190 mmhg
- Average Change [1, 3]: 25 mmhg
- Inhibition [1, 3]: 47%
- Change [1, 3]: 35 mmhg and 15 mmhg
- Control Before AII [1, 3]: 175 mmhg
- Response After AII [1, 3]: 210 mmhg and 190 mmhg
- Average Change [1, 4]: 24 mmhg
- Inhibition [1, 4]: 49%
- Change [1, 4]: 25 mmhg and 23 mmhg
- Control Before AII [1, 4]: 170 mmhg and 157 mmhg
- Response After AII [1, 4]: 195 mmhg and 180 mmhg
- Average Change [1, 5]: 30 mmhg
- Inhibition [1, 5]: 37%
- Change [1, 5]: 40 mmhg and 20 mmhg
- Control Before AII [1, 5]: 170 mmhg and 160 mmhg
- Response After AII [1, 5]: 210 mmhg and 180 mmhg
- Average Change [1, 6]: 27.5 mmhg
- Inhibition [1, 6]: 41%
- Change [1, 6]: 30 mmhg and 25 mmhg
- Control Before AII [1, 6]: 180 mmhg and 175 mmhg
- Response After AII [1, 6]: 210 mmhg and 200 mmhg
- Average Change [1, 7]: 34 mmhg
- Inhibition [1, 7]: 28%
- Change [1, 7]: 38 mmhg and 30 mmhg
- Control Before AII [1, 7]: 175 mmhg and 165 mmhg
- Response After AII [1, 7]: 213 mmhg and 195 mmhg
- Average Change [1, 8]: 31 mmhg
- Inhibition [1, 8]: 34%
- Change [1, 8]: 40 mmhg and 22 mmhg
- Control Before AII [1, 8]: 175 mmhg and 163 mmhg
- Response After AII [1, 8]: 215 mmhg and 185 mmhg
- Average Change [1, 9]: 31.5 mmhg
- Inhibition [1, 9]: 33%
- Change [1, 9]: 40 mmhg and 23 mmhg
- Control Before AII [1, 9]: 175 mmhg and 160 mmhg
- Response After AII [1, 9]: 215 mmhg and 183 mmhg
- Average Change [1, 10]: 40 mmhg
- Inhibition [1, 10]: 15%
- Change [1, 10]: 50 mmhg and 30 mmhg
- Control Before AII [1, 10]: 175 mmhg and 160 mmhg
- Response After AII [1, 10]: 225 mmhg and 190 mmhg
- Average Change [1, 11]: 27.5 mmhg
- Inhibition [1, 11]: 42%
- Change [1, 11]: 35 mmhg and 20 mmhg
- Control Before AII [1, 11]: 185 mmhg and 160 mmhg
- Response After AII [1, 11]: 220 mmhg and 180 mmhg
- pIC50 (Angiotensin II Receptor): 6.48
